Results taken from patent US20040235785A1, “Potentiator of antitumoral agents in the treatment of cancer” (priority 2001, published 2004).

Assays:
[1] = test system: L-929 mouse subcutaneous connective tissue cell line; test: Maximal tolerated dose in vitro (resazurin reduction test), L-929; format: cell-based; conditions: L-929, 48 h
Description: (§1) The human cell lines breast cancer adenocarcinoma MCF-7, prostatic adenocarcinoma PC-3, lung carcinoma A-549 and colon adenocarcinoma DLD-1 together with the mouse cell line L-929 (fibrobast) were obtained from the European Collection of Cell Cultures (ECACC, Salisbury, United Kingdom). Normal human fibroblasts were purchased from Biopredic International (Rennes, France). The M4BEU human melanoma cell line was generously supplied by Dr. J F Doré (Institut National de la Santé et de la Recherche Médicale-INSERM, Unit 218, Lyon, France). All the cell lines were grown in minimum essential medium with Earle's salts (Gibco-BRL, Paisley, Scotland) supplemented with 10% fetal calf serum (Sigma-Aldrich), 1×solution of vitamins (Gibco-BRL), 1 mM sodium pyruvate (Gibco-BRL), 1×non-essential amino acids (Gibco-BRL) and 2 mg of gentamicin base (Gibco-BRL). Cells were cultured in a humidified atmosphere at 37° C. in 5% CO2.

[2] = test system: A-549 human lung carcinoma cell line; test: Maximal tolerated dose in vitro (resazurin reduction test), A-549; format: cell-based; conditions: A-549, 48 h
Description: as §1

[3] = studies performed by the National Cancer Institute; cited from earlier work
[4] = test system: normal and cancerous cell lines; test: In vitro toxicity / MTD, stated overall for the cell lines tested; format: cell-based
Method: The screening of terpene potentiators in accordance with the present invention is carried out by the evaluation of several parameters including: i) the cytotoxicity (maximal tolerated dose); and iii) the effect on the intracellular glutathione content; and iv) the synergism in combination with antitumor agents. Briefly, the cytotoxicity or the cell growth inhibition induced by the terpenes is evaluated on various cell lines in order to determine the maximal tolerated dose (MTD) or non-toxic dose. […] The cell growth is measured by the fluorescence induced by the metabolic transformation of resazurin™ in resorufin™, which is proportional to living cells (see materials and methods). […] Moreover, β-caryophyllene is not toxic in mice at >500 mg/kg. It is shown herein that β-caryophyllene is having a synergistic action on the treatment of cancer when used in combination with antitumoral agents such as paclitaxel. To assess the synergistic effect of terpenes such as β-caryophyllene, the cancer cells are treated with growing concentrations of antitumoral agents (paclitaxel) with or without terpene (β-caryophyllene).
The in vitro toxicity of β-caryophyllene has been evaluated from 5 cell lines: human adenocarcinoma, MCF-7; human prostatic adenocarcinoma, PC-3; human lung carcinoma, A-549 and human colon adenocarcinoma, DLD-1 and from human and mouse fibroblasts.
Cell survival has been evaluated after receiving an increasing dose of β-caryophyllene between 6.25 and 800 µM. It is shown in table I that β-caryophyllene is not toxic in vitro in a dose less than […].

[5] = test system: MCF-7 human breast adenocarcinoma cell line; test: Maximal tolerated dose in vitro (resazurin reduction test), MCF-7; format: cell-based; conditions: MCF-7, 48 h
Description: as §1

normal human fibroblasts = test: Maximal tolerated dose in vitro (resazurin reduction test), human fibroblast; format: cell-based; conditions: 48 h
Description: as §1

[6] = test system: DLD-1 human colon adenocarcinoma cell line; test: Maximal tolerated dose in vitro (resazurin reduction test), DLD-1; format: cell-based; conditions: DLD-1, 48 h
Description: as §1

[7] = test system: PC-3 human prostatic adenocarcinoma cell line; test: Maximal tolerated dose in vitro (resazurin reduction test), PC-3; format: cell-based; conditions: PC-3, 48 h
Description: as §1

[8] = test system: M4BEU human melanoma cell line; test: Maximal tolerated dose in vitro (resazurin reduction test), M4BEU; format: cell-based; conditions: 48 h
Description: as §1

MCF-7 cells = test: Synergistic effect in combination with paclitaxel, MCF-7; format: cell-based, human; conditions: MCF-7, β-caryophyllene combined with paclitaxel
Method: The resazurin reduction test (RRT) was carried out according to the protocol as described by O'Brien et al. Briefly, plates were rinsed by 200 μl PBS (37° C., Gibco) at 37° C. using an automatic microplate washer (Cell Wash™, Labsystems, Helsinki, Finland) and emptied by overturning on absorbent toweling. Then, 150 μl of a 25μg/ml solution of resazurin in MEM without Phenol red was added in each well using an automatic microvolume dispenser (Multidrop 384™ Labsystems). The plates were incubated 1 h at 37° C. in a humidified atmosphere with 5% of CO2 for fluorescence development by living cells. Fluorescence was then measured on the automated 96-well plate reader Fluoroskan Ascent FL™ (Labsystems) using an excitation wavelength of 530 nm and an emission one of 590 nm. The fluorescence is proportional to the number of living cells in the well.
Briefly, the cells were plated at a density of 5×10^3 cells per well in 96-well microplates (Nunclon™, Nunc) in 100 μl of culture medium and were allowed to adhere for 16 h before treatment. […] The proliferation of tumour cells was assessed using resazurin reduction test as described above. The synergistic effect of β-caryophyllene was determined by the comparison between the percentage of cells growth inhibition induced by the paclitaxel used alone and the one induced by the combination of paclitaxel and β-caryophyllene.

C=C1CC/C=C(\C)CC[C@@H]2[C@@H]1CC2(C)C [β-caryophyllene]
MTD (maximal tolerated dose or maximal no toxic dose) [1]: >800 µM | MTD (maximal tolerated dose or maximal no toxic dose) [2]: >800 µM | mutagenicity [3]: not mutagenic | cytotoxicity against normal and cancerous cell lines tested in vitro [4]: does not induce cytotoxicity | in vitro toxicity (cell survival) ([4]; dose less than 800, doses tested between 6.25 and 800): not toxic | MTD (higher concentration that does not induce cell growth inhibition) ([4]; various cell lines, stated overall): greater than 800 μM | MTD (maximal tolerated dose or maximal no toxic dose) [5]: >800 µM | MTD (maximal tolerated dose or maximal no toxic dose) (normal human fibroblasts): >800 µM | MTD (maximal tolerated dose or maximal no toxic dose) [6]: >800 µM | MTD (maximal tolerated dose or maximal no toxic dose) [7]: >800 µM | MTD (maximal tolerated dose or maximal no toxic dose) [8]: >800 µM | increase of cell growth inhibition induced by paclitaxel (MCF-7 cells): about 40%
